Target: hemoglobin (Homo sapiens, UniProt P68871+P69905)
Assay: Stability of hemoglobin in samples preserved at 37° C. in preservation solution containing no haptoglobin, Hb measured by latex agglutination method (Examples 8, 9 and Table 10)
Procedure: Preservation solutions were prepared with the addition of 40 mmol/L HEPES (pH 6.8), 0.1% BSA, 0.1% NaN3, and 0 to 2.5 mmol/L phenylboronic acid. […] Samples obtained by adding hemoglobin-added fecal specimens to the preservation solutions so that the fecal concentration would be 0.5% were preserved at 37° C. for 0, 16, 38, and 62 hours. The fecal specimens were added with hemoglobin having an amount such that the hemoglobin concentration in the samples would be about 300 μg/L. Instead of the fecal specimens to which hemoglobin was added, samples containing no fecal specimens, in which hemoglobin was added to the preservation solutions so that the hemoglobin concentration in the samples would be 300 μg/L, were similarly preserved. The hemoglobin (Hb) concentrations (μg/L) in the preserved samples were measured by the latex agglutination method using the same measurement reagent and measurement device as in Example 1.
The concentration of phenylboronic acid in the preservation solutions of Example 8 was fixed to 0.5 mmol/L, preservation solutions to which sorbitol or sucrose was further added at 10 to 250 mmol/L or trehalose, glucose, fructose, or mannitol was further added at 50 to 100 mmol/L were prepared, and testing was conducted in the same manner as in Example 8. In addition, preservation solutions to which the phenylboronic acid was added but no sugar was added were prepared, preservation solutions to which the phenylboronic acid and sugar were not added were prepared for the comparative examples, and testing was conducted in the same manner.
For comparative examples, preservation solutions to which no arylboronic acid was added were prepared, and testing was conducted in the same manner.

[1] = Feces 1, 0 h at 37° C., arylboronic acid 0.5 mmol/L, no sugar
[2] = Feces 1, 16 h at 37° C., arylboronic acid 0.5 mmol/L, no sugar
[3] = Feces 1, 38 h at 37° C., arylboronic acid 0.5 mmol/L, no sugar
[4] = Feces 1, 62 h at 37° C., arylboronic acid 0.5 mmol/L, no sugar
[5] = Feces 1, arylboronic acid 0.5 mmol/L, 0 h at 37° C.
[6] = Feces 1, arylboronic acid 0.5 mmol/L, 16 h at 37° C.
[7] = Feces 1, arylboronic acid 0.5 mmol/L, 38 h at 37° C.
[8] = Feces 1, arylboronic acid 0.5 mmol/L, 62 h at 37° C.
[9] = Feces 1, arylboronic acid 1 mmol/L, 0 h at 37° C.
[10] = Feces 1, arylboronic acid 1 mmol/L, 16 h at 37° C.
[11] = Feces 1, arylboronic acid 1 mmol/L, 38 h at 37° C.
[12] = Feces 1, arylboronic acid 1 mmol/L, 62 h at 37° C.
[13] = Feces 2, 0 h at 37° C., arylboronic acid 0.5 mmol/L, no sugar
[14] = Feces 2, 16 h at 37° C., arylboronic acid 0.5 mmol/L, no sugar
[15] = Feces 2, 38 h at 37° C., arylboronic acid 0.5 mmol/L, no sugar
[16] = Feces 2, 62 h at 37° C., arylboronic acid 0.5 mmol/L, no sugar
[17] = Feces 2, arylboronic acid 0.5 mmol/L, 0 h at 37° C.
[18] = Feces 2, arylboronic acid 0.5 mmol/L, 16 h at 37° C.
[19] = Feces 2, arylboronic acid 0.5 mmol/L, 38 h at 37° C.
[20] = Feces 2, arylboronic acid 0.5 mmol/L, 62 h at 37° C.
[21] = Feces 2, arylboronic acid 1 mmol/L, 0 h at 37° C.
[22] = Feces 2, arylboronic acid 1 mmol/L, 16 h at 37° C.
[23] = Feces 2, arylboronic acid 1 mmol/L, 38 h at 37° C.
[24] = Feces 2, arylboronic acid 1 mmol/L, 62 h at 37° C.
[25] = Feces 3, 0 h at 37° C., arylboronic acid 0.5 mmol/L, no sugar
[26] = Feces 3, 16 h at 37° C., arylboronic acid 0.5 mmol/L, no sugar
[27] = Feces 3, 38 h at 37° C., arylboronic acid 0.5 mmol/L, no sugar
[28] = Feces 3, 62 h at 37° C., arylboronic acid 0.5 mmol/L, no sugar
[29] = Feces 3, arylboronic acid 0.5 mmol/L, 0 h at 37° C.
[30] = Feces 3, arylboronic acid 0.5 mmol/L, 16 h at 37° C.
[31] = Feces 3, arylboronic acid 0.5 mmol/L, 38 h at 37° C.
[32] = Feces 3, arylboronic acid 0.5 mmol/L, 62 h at 37° C.
[33] = Feces 3, arylboronic acid 1 mmol/L, 0 h at 37° C.
[34] = Feces 3, arylboronic acid 1 mmol/L, 16 h at 37° C.
[35] = Feces 3, arylboronic acid 1 mmol/L, 38 h at 37° C.
[36] = Feces 3, arylboronic acid 1 mmol/L, 62 h at 37° C.
[37] = No feces, 0 h at 37° C., arylboronic acid 0.5 mmol/L, no sugar
[38] = No feces, 16 h at 37° C., arylboronic acid 0.5 mmol/L, no sugar
[39] = No feces, 38 h at 37° C., arylboronic acid 0.5 mmol/L, no sugar
[40] = No feces, 62 h at 37° C., arylboronic acid 0.5 mmol/L, no sugar
[41] = No feces, arylboronic acid 0.5 mmol/L, 0 h at 37° C.
[42] = No feces, arylboronic acid 0.5 mmol/L, 16 h at 37° C.
[43] = No feces, arylboronic acid 0.5 mmol/L, 38 h at 37° C.
[44] = No feces, arylboronic acid 0.5 mmol/L, 62 h at 37° C.
[45] = No feces, arylboronic acid 1 mmol/L, 0 h at 37° C.
[46] = No feces, arylboronic acid 1 mmol/L, 16 h at 37° C.
[47] = No feces, arylboronic acid 1 mmol/L, 38 h at 37° C.
[48] = No feces, arylboronic acid 1 mmol/L, 62 h at 37° C.

Chain of hemoglobin (P69905 2-142): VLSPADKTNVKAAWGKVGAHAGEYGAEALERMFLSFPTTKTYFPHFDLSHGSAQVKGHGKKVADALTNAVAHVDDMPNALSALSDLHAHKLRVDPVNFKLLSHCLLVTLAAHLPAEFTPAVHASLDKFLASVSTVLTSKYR
Chain of hemoglobin (P68871 2-147): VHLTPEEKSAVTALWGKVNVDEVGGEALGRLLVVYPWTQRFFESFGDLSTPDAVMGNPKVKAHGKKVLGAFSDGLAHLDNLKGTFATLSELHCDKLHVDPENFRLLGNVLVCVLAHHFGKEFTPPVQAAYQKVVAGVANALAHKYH

## OB(O)c1ccccc1 [PBA]
[1]
  Hb concentration: 300 µg/L
  Recovery ratio with respect to Hb after 0 days: 100%
[2]
  Hb concentration: 174 µg/L
  Recovery ratio with respect to Hb after 0 days: 58%
[3]
  Hb concentration: 74 µg/L
  Recovery ratio with respect to Hb after 0 days: 25%
[4]
  Hb concentration: 17 µg/L
  Recovery ratio with respect to Hb after 0 days: 6%
[5]
  Hb concentration: 300 µg/L
  Recovery ratio with respect to Hb after 0 days: 100%
[6]
  Hb concentration: 174 µg/L
  Recovery ratio with respect to Hb after 0 days: 58%
[7]
  Hb concentration: 74 µg/L
  Recovery ratio with respect to Hb after 0 days: 25%
[8]
  Hb concentration: 17 µg/L
  Recovery ratio with respect to Hb after 0 days: 6%
[9]
  Hb concentration: 298 µg/L
  Recovery ratio with respect to Hb after 0 days: 100%
[10]
  Hb concentration: 182 µg/L
  Recovery ratio with respect to Hb after 0 days: 61%
[11]
  Hb concentration: 92 µg/L
  Recovery ratio with respect to Hb after 0 days: 31%
[12]
  Hb concentration: 30 µg/L
  Recovery ratio with respect to Hb after 0 days: 10%
[13]
  Hb concentration: 299 µg/L
  Recovery ratio with respect to Hb after 0 days: 100%
[14]
  Hb concentration: 103 µg/L
  Recovery ratio with respect to Hb after 0 days: 34%
[15]
  Hb concentration: 10 µg/L
  Recovery ratio with respect to Hb after 0 days: 3%
[16]
  Hb concentration: 0 µg/L
  Recovery ratio with respect to Hb after 0 days: 0%
[17]
  Hb concentration: 299 µg/L
  Recovery ratio with respect to Hb after 0 days: 100%
[18]
  Hb concentration: 103 µg/L
  Recovery ratio with respect to Hb after 0 days: 34%
[19]
  Hb concentration: 10 µg/L
  Recovery ratio with respect to Hb after 0 days: 3%
[20]
  Hb concentration: 0 µg/L
  Recovery ratio with respect to Hb after 0 days: 0%
[21]
  Hb concentration: 299 µg/L
  Recovery ratio with respect to Hb after 0 days: 100%
[22]
  Hb concentration: 119 µg/L
  Recovery ratio with respect to Hb after 0 days: 40%
[23]
  Hb concentration: 17 µg/L
  Recovery ratio with respect to Hb after 0 days: 6%
[24]
  Hb concentration: 0 µg/L
  Recovery ratio with respect to Hb after 0 days: 0%
[25]
  Hb concentration: 289 µg/L
  Recovery ratio with respect to Hb after 0 days: 100%
[26]
  Hb concentration: 92 µg/L
  Recovery ratio with respect to Hb after 0 days: 32%
[27]
  Hb concentration: 8 µg/L
  Recovery ratio with respect to Hb after 0 days: 3%
[28]
  Hb concentration: 0 µg/L
  Recovery ratio with respect to Hb after 0 days: 0%
[29]
  Hb concentration: 289 µg/L
  Recovery ratio with respect to Hb after 0 days: 100%
[30]
  Hb concentration: 92 µg/L
  Recovery ratio with respect to Hb after 0 days: 32%
[31]
  Hb concentration: 8 µg/L
  Recovery ratio with respect to Hb after 0 days: 3%
[32]
  Hb concentration: 0 µg/L
  Recovery ratio with respect to Hb after 0 days: 0%
[33]
  Hb concentration: 287 µg/L
  Recovery ratio with respect to Hb after 0 days: 100%
[34]
  Hb concentration: 112 µg/L
  Recovery ratio with respect to Hb after 0 days: 39%
[35]
  Hb concentration: 14 µg/L
  Recovery ratio with respect to Hb after 0 days: 5%
[36]
  Hb concentration: 0 µg/L
  Recovery ratio with respect to Hb after 0 days: 0%
[37]
  Hb concentration: 295 µg/L
  Recovery ratio with respect to Hb after 0 days: 100%
[38]
  Hb concentration: 284 µg/L
  Recovery ratio with respect to Hb after 0 days: 96%
[39]
  Hb concentration: 270 µg/L
  Recovery ratio with respect to Hb after 0 days: 91%
[40]
  Hb concentration: 263 µg/L
  Recovery ratio with respect to Hb after 0 days: 89%
[41]
  Hb concentration: 295 µg/L
  Recovery ratio with respect to Hb after 0 days: 100%
[42]
  Hb concentration: 284 µg/L
  Recovery ratio with respect to Hb after 0 days: 96%
[43]
  Hb concentration: 270 µg/L
  Recovery ratio with respect to Hb after 0 days: 91%
[44]
  Hb concentration: 263 µg/L
  Recovery ratio with respect to Hb after 0 days: 89%
[45]
  Hb concentration: 292 µg/L
  Recovery ratio with respect to Hb after 0 days: 100%
[46]
  Hb concentration: 276 µg/L
  Recovery ratio with respect to Hb after 0 days: 95%
[47]
  Hb concentration: 261 µg/L
  Recovery ratio with respect to Hb after 0 days: 90%
[48]
  Hb concentration: 259 µg/L
  Recovery ratio with respect to Hb after 0 days: 89%

Reference: US12215140B2, “Method of stabilizing protein contained in specimen and solution for stabilizing protein contained in specimen” (EIKEN KAGAKU KABUSHIKI KAISHA, priority 2018, dated 2025)
